Measurements from US20130189200A1, “Oral Composition For Removing Tooth Stain” (REGENETISS, INC., priority 2010, published 2013).

Experiment: Whitening effect evaluation test (residual ratio of stain on tea-stained dry apatite)
Protocol: 1 to 2 g of hydroxyapatite (Biogel-HTP, Bio-Rad Laboratories, Inc.) was put into a 50 mL tube, and 20 mL of protein solution (1%, IXOS SCP5000, Nitta Gelatin Inc.) was added thereto, and the mixture was left to stand for 10 to 15 minutes, and then the mixture was separated by centrifugation at 3,000×g for 2 minutes to remove a supernatant. Next, after the centrifugation, 20 mL of stain solution (5 g of instant coffee, two tea bags and two green tea bags were put into 110 mL of water, and the mixture was heated by a microwave oven for 2 minutes. Then the mixture was cooled down at room temperature with shaking for 3 hours to one night. Then the mixture was filtered by a 200 mesh filter. The stain liquid was obtained like this.) was mixed with the precipitated apatite, and the mixture was left to stand for 10 to 15 minutes, and then the mixture was separated by centrifugation (2,500 rpm, 2 minutes) to remove a supernatant. Then, after centrifugation, 20 mL of artificial saliva (20 mM HEPES-KOH pH 7.0, 1.5 mM CaCl2 and 0.9 mM KH2PO4) was added into the precipitated apatite, and the mixture was left to stand for 10 to 15 minutes, and then the mixture was separated by centrifugation (2,500 rpm, 2 minutes). After removal of a supernatant from the mixture, the precipitated apatite was dried.
20 mg of the tea-stained dry apatite is weighed, and 0.3 mL of solution was added thereto, which contains H2O2 at various concentrations and, as appropriate, various phosphate polymers, NaOH and other substances, and then the mixture was left to stand at a certain temperature for a certain time. Then the apatite was precipitated by centrifugation (3,000×g, 15 seconds), and a supernatant was removed from the mixture, and then the apatite was mixed well with 1 mL of water to wash. Further, subsequent washing procedure was repeated four times. After that, the apatite was suspended in 200 μL of water, and the suspension was poured into a well of a 96 well microtiter plate. The 96 well microtiter plate was scanned from the bottom by a scanner (Epson GT8300). The image was inverted to be negative, and brightness analysis was performed by means of imageJ (free software), and then the residual ratio of stain was calculated.

| Compound | Residual ratio of stain (3.5% H2O2, 0% ultraphosphate, pH 7.5, 42 °C, 10 min) [%] | Residual ratio of stain (3.5% H2O2, 0% ultraphosphate, pH 7.5, 42 °C, 30 min) [%] | Residual ratio of stain (3.5% H2O2, 0% ultraphosphate, pH 7.5, 42 °C, 60 min) [%] | Residual ratio of stain (3.5% H2O2, 0% ultraphosphate, pH 7.5, 42 °C, 180 min) [%] | Residual ratio of stain (3.5% H2O2 alone, alkaline (1), pH 11.6, 45 °C, 30 min) [%] | Residual ratio of stain (20% hydrogen peroxide under alkaline condition, 30 minutes treatment) [%] | Residual ratio of stain (15% carbamide peroxide alone, NaOH 0 N, pH 7.0, 45 °C, 30 min) [%] | Residual ratio of stain (15% carbamide peroxide alone, NaOH 0 N, pH 7.0, 45 °C, 60 min) [%] | Residual ratio of stain (15% carbamide peroxide alone, NaOH 1 N, pH 11.4, 45 °C, 30 min) [%] | Residual ratio of stain (15% carbamide peroxide alone, NaOH 1 N, pH 11.4, 45 °C, 60 min) [%] | Residual ratio of stain (30% carbamide peroxide alone, NaOH 0 N, pH 7.1, 45 °C, 60 min) [%] | Residual ratio of stain (30% carbamide peroxide alone, NaOH 1 N, pH 10.9, 45 °C, 30 min) [%] | Residual ratio of stain (30% carbamide peroxide alone, NaOH 1 N, pH 10.9, 45 °C, 60 min) [%] | Residual ratio of stain (highest whitening effect) (carbamide peroxide only, 30%, alkaline condition, treatment time 60 minutes (so in the source)) [%] |
| --- | --- | --- | --- | --- | --- | --- | --- | --- | --- | --- | --- | --- | --- | --- |
| OO [hydrogen peroxide] | 98.15 | 96.80 | 94.89 | 88.78 | 49.23 | 40.08 | – | – | – | – | – | – | – | – |
| NC(N)=O.OO [carbamide peroxide] | – | – | – | – | – | – | 89.86 | 87.73 | 27.69 | 30.39 | 60.96 | 19.01 | 20.22 | 19.01 |
